Measured values from patent US4122088A, “Dicarboxyphenyl substituted bis-sulfonylimino dibenzodithiazepine tetroxides” (American Cyanamid Company, priority 1977, dated 1978).
Counter-ions that a name gives are not always drawn. Like-named read-outs stand apart in the source and are kept apart here.

Columns and labels:
[1] = test system: human C1; assay: Test, Code 026 (C1 inhibitor): ability of activated human C1 to destroy fluid phase human C2 in the presence of C4; format: biochemical; conditions: serial dilution assay, two-fold dilutions; higher well number indicates higher activity
Excerpt: (§1) An active inhibitor protects C2 from C1 and C4; (ii) Test, Code 035 (C3-C9 inhibitor) - This test determines the ability of the late components of human complement (C3-C9) to lyse EAC 142 in the presence of appropriate dilutions of the test compound. An active inhibitor protects EAC 142 from lysis by human C3-C9; (iii) Test, Code 036 (C-Shunt inhibitor) - In this test human erythrocytes rendered fragile are lysed in autologous serum via the shunt pathway activated by cobra venom factor in the presence of appropriate dilutions of the test compound. Inhibition of the shunt pathway results in failure of lysis; (iv) Forssman Vasculitis Test -- Here, the well known complement dependent lesion, Forssman vasculitis, is produced in guinea pigs by intradermal injection of rabbit anti-Forssman antiserum. […]

[2] = test system: shunt pathway; assay: Test, Code 036 (C-Shunt inhibitor): lysis of human erythrocytes in autologous serum via the shunt pathway activated by cobra venom factor; format: cell-based; conditions: serial dilution assay, two-fold dilutions; higher well number indicates higher activity
Excerpt: as §1

[3] = test system: whole complement; assay: Complement Level Reduction Test: whole complement in serum of dosed guinea pigs, capillary tube assay; format: in vivo; conditions: Cavia porcellus, ip, guinea pig, i.p., versus simultaneous controls
Excerpt: An active inhibitor protects C2 from C1 and C4; (ii) Test, Code 035 (C3-C9 inhibitor) - This test determines the ability of the late components of human complement (C3-C9) to lyse EAC 142 in the presence of appropriate dilutions of the test compound. An active inhibitor protects EAC 142 from lysis by human C3-C9; (iii) Test, Code 036 (C-Shunt inhibitor) - In this test human erythrocytes rendered fragile are lysed in autologous serum via the shunt pathway activated by cobra venom factor in the presence of appropriate dilutions of the test compound. Inhibition of the shunt pathway results in failure of lysis; (iv) Forssman Vasculitis Test -- Here, the well known complement dependent lesion, Forssman vasculitis, is produced in guinea pigs by intradermal injection of rabbit anti-Forssman antiserum. The lesion is measured in terms of diameter, edema and hemorrhage and the extent to which a combined index of these is inhibited by prior intraperitoneal injection of the test compound at 200 mg/kg is then reported, unless otherwise stated; (v) Forssman Shock Test -- Lethal shock is produced in guinea pigs by an i.v. injection of anti-Forssman antiserum and the harmonic mean death time of treated guinea pigs is compared with that of simultaneous controls; (vi) Complement Level Reduction Test - In this test, the above dosed guinea pigs, or others, are bled for serum and the complement level is determined in undiluted serum by the capillary t3be method of U.S. Pat. No. 3,876,376 and compared to undosed control guinea pigs; and (vii) Cap 50 Test -- Here, appropriate amounts of the test compound are added to a pool of guinea pig serum in vitro, after which the undiluted serum capillary tube assay referred to above is run. The concentration of compound inhibiting 50% is reported.
With reference to Table I, guinea pigs weighing about 300 g were dosed intravenously (i.v.) or intraperitoneally (i.p.) with 200 mg/kg of the test compound dissolved in saline and adjusted to pH 7-8. […] Percent inhibition was calculated by comparison with simultaneous controls. […]

[4] = test system: late components of human complement (C3-C9); assay: Test, Code 035 (C3-C9 inhibitor): lysis of EAC 142 by late components of human complement; format: cell-based; parameters: key: Negative; conditions: serial dilution assay, two-fold dilutions; higher well number indicates higher activity
Excerpt: as §1

[5] = test system: complement system; conditions: literature reports; cited from earlier work
[6] = New England Journal of Medicine, 286, 808-812 (1972); cited from earlier work

Molecule: O=C(O)c1cc(NS(=O)(=O)c2ccc3c(c2)S(=O)(=O)N(c2cc(C(=O)O)cc(C(=O)O)c2)S(=O)(=O)c2cc(S(=O)(=O)Nc4cc(C(=O)O)cc(C(=O)O)c4)ccc2-3)cc(C(=O)O)c1 [5,5'-{[6-(3,5-Dicarboxyphenyl)dibenzo[d,f][1,3,2]-dithiazepine-3,9-diyl]bis(sulfonylimino)}diisophthalic acid hexasodium salt S,S,S',S'-tetroxide]
- C1 026* Wells [1]: +5 Wells
- Shunt Inhibition 036* Wells [2]: +3 Wells
- inhibition at 200 mg/kg ([3]; 0.5 h, 30 min, read-out: In Vivo Activity (Guinea Pig) % Inhibition, Intraperitoneal, 30 minutes): -23%
- inhibition at 200 mg/kg ([3]; 1 h, 60 min, read-out: In Vivo Activity (Guinea Pig) % Inhibition, Intraperitoneal, 60 minutes): -57%
- inhibition at 200 mg/kg ([3]; 2 h, 120 min, read-out: In Vivo Activity (Guinea Pig) % Inhibition, Intraperitoneal, 120 minutes): -42%
- C-Late 035* Wells [4]: N

Molecule: Cc1ccc(C(=O)Nc2ccc(S(=O)(=O)O)c3cc(S(=O)(=O)O)cc(S(=O)(=O)O)c23)cc1NC(=O)c1cccc(NC(=O)Nc2cccc(C(=O)Nc3cc(C(=O)Nc4ccc(S(=O)(=O)O)c5cc(S(=O)(=O)O)cc(S(=O)(=O)O)c45)ccc3C)c2)c1 [Suramin]
- anticomplementary effect / inhibition of the complement system [5]: competitive inhibitor of the complement system

Molecule: Nc1ccc2cc(S(=O)(=O)O)cc(O)c2c1N=Nc1ccc(NC(=O)Nc2ccc(N=Nc3c(N)ccc4cc(S(=O)(=O)O)cc(O)c34)c(S(=O)(=O)O)c2)cc1S(=O)(=O)O [chlorazol fast pink, 3,3'-ureylenebis-[6-(2-amino-8-hydroxy-6-sulfo-1-naphthylazo)] benzenesulfonic acid, tetrasodium salt]
- anticomplementary effect / inhibition of the complement system [5]: anticomplementary effect

Molecule: NCCCCCC(=O)O [epsilon-aminocaproic acid]
- use in the treatment of hereditary angioneurotic edema [6]: used with success

Molecule: NC[C@H]1CC[C@H](C(=O)O)CC1 [tranexamic acid]
- use in the treatment of hereditary angioneurotic edema [6]: used with success

Molecule: heparin
- anticomplementary effect / inhibition of the complement system [5]: anticomplementary effect
